Results taken from patent publication US20250281479A1, “TREATMENT OF CAVERNOUS ANGIOMAS WITH A 4-SUBSTITUTED PIPERIDINE DERIVATIVE” (Neurelis, Inc., priority 2024, published 2025).
Read-outs that look alike come from different tables or passages of the source.

Columns and labels:
CYP1A2 = experiment: CYP induction in hepatocyte culture; format: in vitro ADME; conditions: in at least one hepatocyte culture
Procedure: (§1) Exposure to NRL-2017 was similar or greater (up to 5-fold) than that to NRL-1049 in rats when dosed once a day (QD). In monkeys, exposure to NRL-2017 was also greater (up to 33-fold) than that to NRL-1049. When rats were dosed twice a day (BID) for 14 days, there was a decrease in formation of NRL-2017 with exposure to NRL-2017 lower than that of NRL-1049 (ratio as low as 0.06). […] NRL-1049 bound to human serum albumin and human alpha1-acid glycoprotein. […] There was also inhibition of P-glycoprotein (P-gp) (only CACO-2 cells), organic anion transporting polypeptides (OATP) OATP1B1, OATP1B3 and OAT3 (IC50, >100 μM), but no effect on P-gp (MDCK2 cells), breast cancer resistance protein (BCRP), bile salt export pump (BSEP), or MATE2-K. NRL-1049 is a substrate for P-gp, not BCRP. […] This conclusion will be revisited when human pharmacokinetic (PK) data becomes available.

CYP3A4 = experiment: CYP induction in hepatocyte culture; format: in vitro ADME; conditions: in at least one hepatocyte culture
Procedure: as §1

CYP2B2 = experiment: CYP expression in hepatocyte culture; format: in vitro ADME; conditions: at concentrations as low as 3.2 μM
Procedure: as §1

[1] = first-in-human single ascending dose and food-effect study, plasma pharmacokinetics; format: in vivo; conditions: for Vd/F: read-out: Vz/F
Source text: This was a first-in-human, single center, randomized, double-blind, placebo-controlled, single ascending dose (SAD) study, including a food-effect assessment, in healthy male and female subjects. Up to 44 subjects were included in the study.
The study consisted of 4 sequential cohorts of 8 subjects each (6 active and 2 placebo), randomly assigned to receive a single oral dose of NRL-1049 or matching-placebo under fasting state on Day 1 (See Table 2). In each cohort, a sentinel group of 2 subjects (1 active and 1 placebo) were dosed at least 24 hours prior to enrolling the remaining subjects of the cohort, contingent on the safety profile observed during sentinel dosing, as defined by medical judgment.
Subjects were admitted to the clinical research unit (CRU) on Day −1. On Day 1, following an overnight fast, subjects received a single oral dose of their assigned study treatment. Safety, PK, and exploratory biomarker assessments were performed prior to dosing and at assigned time points during study confinement. Subjects were permitted to leave the CRU following the completion of the 48-hour PK postdose sampling and safety assessments. A safety follow-up phone call was performed on Day 8 (±1 day).
Furthermore, a food-effect assessment was integrated into Cohort 3, in which a single oral 150 mg dose of NRL-1049 or placebo was administered to 12 subjects (10 active and 2 placebo) under fed state in Period 2 (refer to schedule of food-effect Cohort 3 in Table 3). After completion of Period 1 and a washout period of at least 14 days, Cohort 3 subjects repeated the screening procedures to ensure they still met the inclusion and exclusion criteria prior to readmission to the CRU for Period 2. Subjects dosed in Period 1 and who returned for Period 2 (a maximum of 6 active and 2 placebo) were administered the same single oral dose in Period 2 under fed state. In addition, at least 4 new subjects were enrolled in Period 2 only, in order to dose a total of 12 subjects (10 active and 2 placebo), in a 1:1 ratio of male to female. If a subject dosed in Period 1 was unable to return for Period 2, a new subject was enrolled to ensure dosing a total of 12 subjects in Period 2. Newly enrolled subjects only received the study drug in the fed state, and as such were not required to undergo Period 1 activities. There was no sentinel approach in Period 2.
Study drugs (NRL-1049 or placebo) were administered in the morning. The date and time of each dose was recorded. For each subject, all scheduled postdose activities and assessments were performed relative to the time of study drug administration. An oral dose of the assigned formulation was administered to subjects with approximately 240 mL of water at ambient temperature. The capsule(s) were swallowed whole and not chewed or broken. Food and fluid intake other than water were controlled for each confinement period and all subjects. In Cohorts 1, 2, 3 (Period 1), and 4, water was permitted as needed except from 1 hour predose until 1 hour after dosing. In Period 2 of Cohort 3, water was permitted as needed throughout the confinement period. For cohorts under fasting state, subjects were required to fast (abstain from food) for at least 10 hours prior to dosing and for at least 4 hours following dosing. In Period 2 of the food-effect cohort only, following an overnight fast of at least 10 hours, subjects received a standardized high-fat, high-calorie meal 30 minutes prior to study drug administration. An example meal would consist of 2 eggs fried in butter, 2 strips of bacon, 2 slices of toast with butter, 4 ounces of hash brown potatoes, and 8 ounces of whole milk. […] Subjects had to eat the total content of this meal in 30 minutes or less. For all cohorts, a standardized lunch was served at least 4 hours after dosing. A supper, light snack, and other meals were served at appropriate times thereafter, but not until after 9 hours postdose. […]

[2] = 150 mg NRL-1049, fed compared to fasting state
[3] = 25 to 250 mg NRL-1049, fasting conditions
[4] = plasma NRL-1049, mean, 25 mg NRL-1049 single oral, fasting, Cohort 1, N = 6
[5] = plasma NRL-1049, mean, 75 mg NRL-1049 single oral, fasting, Cohort 2, N = 6
[6] = plasma NRL-1049, mean, 150 mg NRL-1049 single oral, Fed, Cohort 3, N = 10
[7] = plasma NRL-1049, mean, 250 mg NRL-1049 single oral, fasting, Cohort 4, N = 6

Which results are given for `C[C@@H](N)C1CCN(S(=O)(=O)c2cccc3cnccc23)CC1` [NRL-1049]?
induction of CYP1A2 (CYP1A2): 3 fold; induction of CYP3A4, maximal effective concentration [Emax] (CYP3A4): 2.19 fold; EC50 (CYP3A4; read-out: induction of CYP3A4, half-maximal effective concentration [EC50]): 41.5 µM; reduced expression of CYP2B2 (CYP2B2): 0.5 fold; food effect on mean AUC0-T and AUCinf [1, 2]: greater in the fed state; food effect on mean Cmax [1, 2]: decreased; food effect on mean apparent clearance [1, 2]: greater in the fasting state; food effect on mean apparent volume of distribution [1, 2]: greater in the fed state; food effect on mean elimination half-life [1, 2]: slightly increased; time up to which mean concentrations were quantifiable ([1]; 25-mg dose, fasting state): up to 2 hours; manner of increase of AUC0-T with dose [1, 3]: greater than dose proportional; manner of increase of AUC0-Tmax with dose [1, 3]: dose proportional; manner of increase of AUCinf with dose [1, 3]: greater than dose proportional; manner of increase of Cmax with dose [1, 3]: dose proportional; time up to which mean concentrations were quantifiable ([1]; 75-mg dose, fasting state): ≤ 4 h; time up to which mean concentrations were quantifiable ([1]; 150- and 250-mg doses, fasting state): ≤ 8 h; time up to which mean concentrations were quantifiable ([1]; 150-mg dose, fed state): up to 12 hours; AUC(0-t) ([1]; both sexes, human, plasma, oral, range over dose range 25 to 250 mg NRL-1049, fasting state, read-out: mean AUC0-T): 3.03 to 76.5 ng·h/mL; AUC ([1]; both sexes, human, plasma, oral, range over dose range 25 to 250 mg NRL-1049, fasting state, read-out: mean AUC0-Tmax): 1.26 to 8.73 ng·h/mL; AUC(0-inf) ([1]; both sexes, human, plasma, oral, range over dose range 25 to 250 mg NRL-1049, fasting state, read-out: mean AUCinf): 3.81 to 78.2 ng·h/mL; Cmax ([1]; both sexes, human, plasma, oral, range over dose range 25 to 250 mg NRL-1049, fasting state, read-out: mean Cmax): 3.66 to 58 ng/mL; half-life ([1]; both sexes, human, plasma, oral, range over the dose groups 25 to 250 mg NRL-1049, fasting state, read-out: mean elimination half-life): 31.2 to 75.6 min; AUC(0-t) ([1]; both sexes, human, plasma, po, 25 mg, plasma NRL-1049, mean, 25 mg NRL-1049 single oral, fasting, Cohort 1, N = 6, read-out: AUC0-T): 3.03 ng·h/mL; AUC ([1]; both sexes, human, plasma, po, 25 mg, plasma NRL-1049, mean, 25 mg NRL-1049 single oral, fasting, Cohort 1, N = 6, read-out: AUC0-Tmax): 1.26 ng·h/mL; AUC(0-inf) ([1]; both sexes, human, plasma, po, 25 mg, plasma NRL-1049, mean, 25 mg NRL-1049 single oral, fasting, Cohort 1, N = 6, read-out: AUCinf): 3.81 ng·h/mL; Cmax ([1]; both sexes, human, plasma, po, 25 mg, plasma NRL-1049, mean, 25 mg NRL-1049 single oral, fasting, Cohort 1, N = 6, read-out: Cmax): 3.66 ng/mL; Vd/F ([1]; both sexes, human, plasma, po, 25 mg, plasma NRL-1049, mean, 25 mg NRL-1049 single oral, fasting, Cohort 1, N = 6): 5500 L; Tmax ([1]; both sexes, human, plasma, po, 25 mg, plasma NRL-1049, median, 25 mg NRL-1049 single oral, fasting, Cohort 1, N = 6, read-out: Tmax): 45 min; AUC(0-t) ([1]; both sexes, human, plasma, po, 75 mg, plasma NRL-1049, mean, 75 mg NRL-1049 single oral, fasting, Cohort 2, N = 6, read-out: AUC0-T): 13.8 ng·h/mL; AUC ([1]; both sexes, human, plasma, po, 75 mg, plasma NRL-1049, mean, 75 mg NRL-1049 single oral, fasting, Cohort 2, N = 6, read-out: AUC0-Tmax): 2.88 ng·h/mL; AUC(0-inf) ([1]; both sexes, human, plasma, po, 75 mg, plasma NRL-1049, mean, 75 mg NRL-1049 single oral, fasting, Cohort 2, N = 6, read-out: AUCinf): 15.2 ng·h/mL; Cmax ([1]; both sexes, human, plasma, po, 75 mg, plasma NRL-1049, mean, 75 mg NRL-1049 single oral, fasting, Cohort 2, N = 6, read-out: Cmax): 16.9 ng/mL; Vd/F ([1]; both sexes, human, plasma, po, 75 mg, plasma NRL-1049, mean, 75 mg NRL-1049 single oral, fasting, Cohort 2, N = 6): 6020 L; Tmax ([1]; both sexes, human, plasma, po, 75 mg, plasma NRL-1049, median, 75 mg NRL-1049 single oral, fasting, Cohort 2, N = 6, read-out: Tmax): 30 min; AUC(0-t) ([1]; both sexes, human, plasma, po, 150 mg, plasma NRL-1049, mean, 150 mg NRL-1049 single oral, Fasted, Cohort 3, N = 6, read-out: AUC0-T): 34.8 ng·h/mL; AUC ([1]; both sexes, human, plasma, po, 150 mg, plasma NRL-1049, mean, 150 mg NRL-1049 single oral, Fasted, Cohort 3, N = 6, read-out: AUC0-Tmax): 6.16 ng·h/mL; AUC(0-inf) ([1]; both sexes, human, plasma, po, 150 mg, plasma NRL-1049, mean, 150 mg NRL-1049 single oral, Fasted, Cohort 3, N = 6, read-out: AUCinf): 36.2 ng·h/mL; Cmax ([1]; both sexes, human, plasma, po, 150 mg, plasma NRL-1049, mean, 150 mg NRL-1049 single oral, Fasted, Cohort 3, N = 6, read-out: Cmax): 34.9 ng/mL; Vd/F ([1]; both sexes, human, plasma, po, 150 mg, plasma NRL-1049, mean, 150 mg NRL-1049 single oral, Fasted, Cohort 3, N = 6): 10800 L; AUC(0-t) ([1]; both sexes, human, plasma, po, 150 mg, plasma NRL-1049, mean, 150 mg NRL-1049 single oral, Fed, Cohort 3, N = 10, read-out: AUC0-T): 42 ng·h/mL; AUC ([1]; both sexes, human, plasma, po, 150 mg, plasma NRL-1049, mean, 150 mg NRL-1049 single oral, Fed, Cohort 3, N = 10, read-out: AUC0-Tmax): 6.14 ng·h/mL; AUC(0-inf) ([1]; both sexes, human, plasma, po, 150 mg, plasma NRL-1049, mean, 150 mg NRL-1049 single oral, Fed, Cohort 3, N = 10, read-out: AUCinf): 44.7 ng·h/mL; Cmax ([1]; both sexes, human, plasma, po, 150 mg, plasma NRL-1049, mean, 150 mg NRL-1049 single oral, Fed, Cohort 3, N = 10, read-out: Cmax): 18.5 ng/mL; Vd/F ([1]; both sexes, human, plasma, po, 150 mg, plasma NRL-1049, mean, 150 mg NRL-1049 single oral, Fed, Cohort 3, N = 10): 10800 L; Tmax ([1]; both sexes, human, plasma, po, 150 mg, plasma NRL-1049, median, 150 mg NRL-1049 single oral, Fasted, Cohort 3, N = 6, read-out: Tmax): 30 min; Tmax ([1]; both sexes, human, plasma, po, 150 mg, plasma NRL-1049, median, 150 mg NRL-1049 single oral, Fed, Cohort 3, N = 10, read-out: Tmax): 52.8 min; AUC(0-t) ([1]; both sexes, human, plasma, po, 250 mg, plasma NRL-1049, mean, 250 mg NRL-1049 single oral, fasting, Cohort 4, N = 6, read-out: AUC0-T): 76.5 ng·h/mL; AUC ([1]; both sexes, human, plasma, po, 250 mg, plasma NRL-1049, mean, 250 mg NRL-1049 single oral, fasting, Cohort 4, N = 6, read-out: AUC0-Tmax): 8.73 ng·h/mL; AUC(0-inf) ([1]; both sexes, human, plasma, po, 250 mg, plasma NRL-1049, mean, 250 mg NRL-1049 single oral, fasting, Cohort 4, N = 6, read-out: AUCinf): 78.2 ng·h/mL; Cmax ([1]; both sexes, human, plasma, po, 250 mg, plasma NRL-1049, mean, 250 mg NRL-1049 single oral, fasting, Cohort 4, N = 6, read-out: Cmax): 58 ng/mL; Vd/F ([1]; both sexes, human, plasma, po, 250 mg, plasma NRL-1049, mean, 250 mg NRL-1049 single oral, fasting, Cohort 4, N = 6): 4940 L; Tmax ([1]; both sexes, human, plasma, po, 250 mg, plasma NRL-1049, median, 250 mg NRL-1049 single oral, fasting, Cohort 4, N = 6, read-out: Tmax): 30 min; Tmax ([1]; both sexes, human, plasma, po, range over single oral doses of 25 to 250 mg NRL-1049, fasting state, read-out: median time to maximum observed plasma concentration (Tmax)): 30 to 45 min; CL/F [1, 4]: 7420 L/h; Thalf [1, 4]: 0.52 h; CL/F [1, 5]: 5350 L/h; Thalf [1, 5]: 0.81 h; CL/F ([1]; plasma NRL-1049, mean, 150 mg NRL-1049 single oral, Fasted, Cohort 3, N = 6): 4820 L/h; CL/F [1, 6]: 3700 L/h; Thalf [1, 6]: 2.05 h; CL/F [1, 7]: 3370 L/h; Thalf [1, 7]: 1.03 h
